Experimental data as given in publication PMC9221509, “Discovery of a Novel Antimicrobial Peptide, Temporin-PKE, from the Skin Secretion of Pelophylax kl. esculentus, and Evaluation of Its Structure-Activity Relationships” (Biomolecules, 2022).
Values after ≈ are worked out from the molar mass of the structure shown. Non-standard residues stand in square brackets, D forms with d. Residues, ends and D or L forms follow the SMILES beside them.

Experiments:
S. aureus (ATCC 6538) = experiment: microbe, parasite or virus in culture; format: cell-based, Staphylococcus aureus
Experimental: (§1) The antimicrobial activities of peptides were evaluated against the Gram-positive bacteria, S. aureus (ATCC 6538), methicillin-resistant Staphylococcus aureus (MRSA) (NCTC 12493), Enterococcus faecalis (E. faecalis) (NCTC 12697); the Gram-negative bacteria, E. coli (ATCC CRM 8739), Klebsiella pneumoniae (K. pneumoniae) (ATCC 43816), Pseudomonas aeruginosa (P. aeruginosa) (ATCC CRM 9027); and the yeast, Candida albicans (C. albicans) (ATCC CRM 10231). Clinical isolates of MRSA (B042 V2E1 A), E. coli (ATCC BAA-2340), K. pneumoniae (ATCC BAA-1705), and P. aeruginosa (B004 V2S2 B) were also used to determine their antimicrobial activities. The suspension of microorganisms in the logarithmic growth phase with a specific final density (Gram-negative and Gram-positive bacteria: 5 × 10^5 CFU/mL; yeast: 1 × 10^6 CFU/mL) was incubated with different peptide concentrations from 1 µM to 512 µM at 37 °C for 24 h. PBS was used as the negative control, and norfloxacin and amphotericin B were selected as the positive control for bacteria and yeast, respectively. Since the Norfloxacin had weak activities against P. aeruginosa (B004 V2S2 B) and K. pneumoniae (ATCC BAA 1705), gentamicin was used as the positive control for these two bacterial strains. The absorbance of each well was obtained using a microplate reader (EL808, Biolise BioTek, Winooski, VT, USA) set at 550 nm wavelength. The MIC value was the lowest concentration of a peptide that inhibits visible bacterial growth. Once the MIC values were determined, an aliquot from the bacterial culture exposed to the peptide at or above its MIC value was inoculated on a Mueller Hinton agar (MHA) and was incubated at 37 for 18 h. The MBC value was the lowest concentration of a peptide that kills 99.9% of bacteria.

[1] = test system: C. albicans (ATCC CRM 10231); experiment: organism not typed; format: cell-based, Candida albicans
Experimental: as §1

E. coli (ATCC BAA-2340) = experiment: microbe, parasite or virus in culture; format: cell-based, Escherichia coli
Experimental: as §1

E. coli (ATCC CRM 8739) = experiment: microbe, parasite or virus in culture; format: cell-based, Escherichia coli
Experimental: as §1

horse red blood cells = format: cell-based; details: red cells of horse, 2 h
Experimental: As a previous study described in detail, the haemolysis activity assays of peptides were conducted on defibrinated horse blood (TCS Biosciences Ltd., Buckingham, UK) with an erythrocyte suspension concentration of 2% (v/v). The 120 μL of peptide solution in a gradient concentration ranging from 1µM to 512 µM was mixed with the same volume of 2% horse red blood cell suspension, and the complex was incubated at 37 °C for 2 h. PBS and 0.1% Triton X-100 were chosen as the negative and positive control, respectively. After centrifugation at 900× g for 5 min, the absorbance of the supernatant was analysed using a microplate reader (EL808, Biolise BioTek, Winooski, VT, USA) set to a wavelength of 570 nm. The equation to calculate the haemolysis of the peptides is shown below: Haemolysis (%)=A−An/Ap−An×100% where A represents the absorbance of each treatment group, An represents the average absorbance of the negative control group, and Ap represents the average absorbance of the positive control group.

[2] = test system: S. aureus (ATCC 6538) biofilm; format: cell-based, Staphylococcus aureus; details: ATCC 6538, 24 h
Experimental: (§2) The anti-biofilm activities of the peptides against S. aureus (ATCC 6538), MRSA (NCTC 12493), E. faecalis (NCTC 12697), E. coli (ATCC CRM 8739), K. pneumoniae (ATCC 43816), and P. aeruginosa (ATCC CRM 9027), were evaluated. For the MBIC assay, 99 µL of bacterial suspension (5 × 10^5 CFU/mL) was mixed with 1 µL of serial dilutions (from 100 µM to 51,200 µM) of temporin-PKE and its analogues in a 96-well plate, and the plate was incubated in a moist shaking incubator at a speed of 200 rpm at 37 °C for 24 h. For the MBEC assay, 100 µL of bacterial suspension (5 × 10^5 CFU/mL) in each well was seeded in a new 96-well plate, and the plate was put into the same shaking incubator for 24 h incubation to allow biofilm formation on the well. After biofilm formation, the biofilm in the plate was washed with PBS twice. The PBS was aspirated between washes to remove planktonic bacterial cells. The washed biofilm in each well was treated with 100 µL of serial dilutions (from 1 µM to 512 µM) of the test peptides. Then, the plate was incubated in the same shaking incubator for another 24 h. After being washed by PBS twice and fixed with methanol, the biofilm in each well was incubated with 100 µL of 0.1% crystal violet for 30 min, and the stained biofilm was dissolved in 100 µL of glacial acidic acid after drying. The solutions were transferred to a new microplate, and the absorbance of each well was measured using a microplate reader (EL808, Biolise BioTek, Winooski, VT, USA) set to 595 nm wavelength. The MBIC was the minimum concentration of the peptide showing no biofilm formation. The MBEC is the lowest concentration of the peptide capable of eradicating the mature biofilms, which had no biofilm in the well.

[3] = test system: E. faecalis (NCTC 12697) biofilm; format: cell-based, Enterococcus faecalis; details: NCTC 12697, 24 h
Experimental: as §2

[4] = test system: K. pneumoniae (ATCC 43816); format: cell-based, Klebsiella pneumoniae; details: ATCC 43816, 24 h
Experimental: as §1
According to the procedures in a previous article, the analysis of the sensitivity of the peptides was determined by measuring MIC values in the presence of different types of salts and 10% fetal bovine serum. MRSA (NCTC 12493) and K. pneumoniae (ATCC 43816) were selected as the subjects of these assays. Various salts at different concentrations, including 150 mM NaCl, 4.5 mM KCl, 6 μM NH4Cl, 1 mM MgCl2, […], […], and 10% serum (Gibco, Auckland, New Zealand), were added to the MHB medium for the examination of the MIC values which were determined as described in Section 2.7.

MIC (S. aureus (ATCC 6538); ATCC 6538, 24 h): 2 µM (≈ 3.68 µg/mL) | MIC ([1]; ATCC CRM 10231, 24 h, read-out: MIC): >512 µM | MIC (E. coli (ATCC BAA-2340); ATCC BAA-2340, 24 h, read-out: MIC): >512 µM | MIC (E. coli (ATCC CRM 8739); ATCC CRM 8739, 24 h, read-out: MIC): >512 µM | HC50 (horse red blood cells): 68.37 µM | MIC against K. pneumoniae in the presence of 4 µM FeCl3 [4]: >512 µM | MIC against K. pneumoniae in the presence of 6 µM NH4Cl [4]: >512 µM | MIC against K. pneumoniae in the presence of 8 µM ZnCl2 [4]: >512 µM | MIC against K. pneumoniae in the presence of 1 mM MgCl2 [4]: >512 µM | MIC against K. pneumoniae in the presence of 2 mM CaCl2 [4]: >512 µM | MIC against K. pneumoniae in the presence of 4.5 mM KCl [4]: >512 µM | MIC against K. pneumoniae in the presence of 150 mM NaCl [4]: >512 µM | MIC against K. pneumoniae in the presence of 10% FBS [4]: >512 µM | MIC against K. pneumoniae, Negative [4]: >512 µM
SMILES: CC[C@@H](C)[C@@H](NC(=O)[C@H](CCCCN)NC(=O)[C@@H]1CCCN1C(=O)[C@H](CC(C)C)NC(=O)[C@H](CC(C)C)NC(=O)[C@H](CO)NC(=O)[C@H](CO)NC(=O)[C@H](CC(C)C)NC(=O)[C@H](C)NC(=O)CNC(=O)[C@@H](NC(=O)[C@@H](NC(=O)[C@H](CC(C)C)NC(=O)[C@@H]1CCCN1C(=O)[C@H](CC(C)C)NC(=O)[C@@H](N)Cc1ccccc1)[C@@H](C)CC)[C@@H](C)CC)C(=O)N[C@@H](Cc1ccccc1)C(N)=O [Temporin-PKE-i] (H-FLPLIIGALSSLLPK[dI]F-NH2)
MBC (S. aureus (ATCC 6538); ATCC 6538, 18 h): 2 µM (≈ 3.68 µg/mL) | MBC ([1]; ATCC CRM 10231, 18 h, read-out: MBC): >512 µM | MBC (E. coli (ATCC BAA-2340); ATCC BAA-2340, 18 h, read-out: MBC): >512 µM | MBC (E. coli (ATCC CRM 8739); ATCC CRM 8739, 18 h, read-out: MBC): >512 µM | MBIC [2]: 2 µM | MBIC [3]: 4 µM
